Assay results as given in patent US8143192B2, “Methods for increasing the resistance of plants to hypoxic conditions” (Bayer Cropscience N.V., priority 2005, dated 2012).
Like-named read-outs stand apart in the source and are kept apart here.

Tests used:
[1] = system: Arabidopsis thaliana cv. C24 plants; assay: Depth of Arabidopsis root growth in growth medium after application of 6-chloronicotinic acid (6-CNA); assay type: in vivo; details: for Root depth, mean: after three weeks, untreated mean 2.031034
Procedure: Sterilization of Arabidopsis seeds: 2 min.
Low light overnight to 24 hours.
Plants are grown at 23° C. 30-50 μEinstein s^−1m^−2. 12 hours light-12 hours dark. (See FIG. 1)

[2] = system: Arabidopsis thaliana cv. C24 plants; details: 0.7% Difco agar; for Root depth, mean: after three weeks, untreated mean 1.9475, *p < 0.01
Procedure: A container (1) with a seal (2) is filled with a transparent or translucent growth medium (3), such as 0.4% agar-water or 0.7% agar-water, to which additional test-compounds may be added. One pregerminated seed is added to the tube and allowed to grow for three weeks. After three weeks of growth in vertical position, the root depth (5) of the plant (4) is measured from the top of the medium to the lowest point of the roots.
Germination medium: Half concentrated Murashige and Skoog salts; B5 vitamins; 1.5% sucrose; pH 5.8; 0.4% Difco agar.
Sterilization of Arabidopsis seeds: 2 min. 70% ethanol; 10 min. bleach (6% active chlorine)+1 drop Tween 20 for 20 ml solution; wash 5 times with sterile tap water; sterilization is done in 2 ml eppendorf tubes. Arabidopsis seeds sink to the bottom of the tube, allowing removal of the liquids by means of a 1 ml pipetman.
Pregermination of seeds: In 9 cm Optilux Petridishes (Falcon) containing 10 ml sterile tap water. Low light overnight to 24 hours.
Growing of Arabidopsis plants: Seeds are sown in 25×150 mm glass tubes (Sigma C5916) with natural (transparent) colored closure (Sigma C5791) containing ±34 ml germination medium: 1 seed/tube. The tubes are put in the two outer rows of tube holders for 40 tubes (VWR nalg5970-0025) wrapped in aluminium foil so that the roots can grow in the dark. Plants are grown at 23° C. 30-50 μEinstein s^−1m^−2. 12 hours light-12 hours dark.
After three weeks, the root depth is measured from the surface of the medium to the lowest point of root growth.

Structure (SMILES): O=C(O)c1ccc(Cl)nc1 [6-CNA, 6-chloronicotinic acid]
- Root depth, mean ([1]; 1 mg/L 6-CNA in germination medium, *p < 0.01): 2.18 mm
- Root depth, mean ([1]; 5 mg/L 6-CNA in germination medium, **p < 0.05): 2.118 mm
- Root protrusion into growth medium compared to non-treated plants ([1]; 1 and 5 mg/l 6-CNA, three weeks): protruded deeper in the growth medium

Structure (SMILES): O=[N+]([O-])/N=C1\NCCN1Cc1ccc(Cl)nc1 [imidacloprid]
- Root depth, mean ([2]; 50 mg/L imidacloprid in germination medium): 2.1875 mm
- Root depth, mean ([2]; 100 mg/L imidacloprid in germination medium): 2.2725 mm
- Root protrusion into growth medium compared to non-treated plants ([2]; 50 and 100 mg/l imidacloprid, three weeks): protruded deeper in the growth medium
